Measured values from patent publication US20050009706A1, “Alpha-cyanoacrylates” (priority 2001, published 2005).

Legend:
Amaranthus retroflexus = assay: greenhouse experiment, pre-emergence treatment; format: in vivo; conditions: 1.0 kg/ha
Text: (§1) The seeds of the test plants were sown separately for each species. For the pre-emergence treatment, directly after sowing the active compounds, which had been suspended or emulsified in water, were applied by means of finely distributing nozzles. The containers were irrigated gently to promote germination and growth and subsequently covered with transparent plastic hoods until the plant had rooted. This cover caused uniform germination of the test plants, unless this was adversely affected by reactive compounds. The application rate for a pre-emergence treatment was 0.5 or 1.0 kg of a.s. (active substance)/ha. Depending on the species, the plants were kept at 10-25° C. or 20-35° C. The test period extended over 2 to 4 weeks. During this time, the plants were tended, and their response to the individual treatments was evaluated. Evaluation was carried out using a scale from 0 to 100. 100 means no emergence of the plants, or complete destruction of at least the above-ground parts, and 0 means no damage, or normal course of growth. The plants used in the greenhouse experiments were of the following species: [table]

Setaria faberii [1] = assay: greenhouse experiment, pre-emergence treatment; format: in vivo
Text: as §1

Pharbitis purpurea = assay: greenhouse experiment, post-emergence treatment; format: in vivo
Text: (§2) The seeds of the test plants were sown separately for each species. For the post-emergence treatment, the test plants were first grown to a height of from 3 to 15 cm, depending on the plant habit, and only then treated with the active compounds which had been suspended or emulsified in water. The test plants were for this purpose either sown directly and grown in the same containers, or they were first grown separately as seedlings and transplanted into the test containers a few days prior to treatment. The application rate for the post-emergence treatment was 0.5 or 1.0 kg of a.s. (active substance)/ha. Depending on the species, the plants were kept at 10-25° C. or 20-35° C. The test period extended over 2 to 4 weeks. During this time, the plants were tended, and their response to the individual treatments was evaluated. Evaluation was carried out using a scale from 0 to 100. 100 means no emergence of the plants, or complete destruction of at least the above-ground parts, and 0 means no damage, or normal course of growth. The plants used in the greenhouse experiments were of the following species: [table]

Setaria faberii [2] = assay: greenhouse experiment, post-emergence treatment; format: in vivo; conditions: 1.0 kg/ha
Text: as §2

Digitaria sanguinalis = assay: greenhouse experiment, pre-emergence treatment; format: in vivo
Text: as §1

Structure (SMILES)	effect on the harmful plant Setaria faberii (Setaria faberii [1]; 1.0 kg/ha)	post-emergence activity against Pharbitis purpurea (Pharbitis purpurea; 1.0 kg/ha)	melting point	further results
CCC(CC)/C(N)=C(\C#N)C(=O)OC(C)C [Example 4.1, Isopropyl (2Z)-3-amino-2-cyano-4-ethyl-2-hexenoate]	very good	very good		effect on the harmful plant Amaranthus retroflexus (Amaranthus retroflexus): very good; post-emergence activity against Setaria faberii (Setaria faberii [2]): very good
CCC(C)OC(=O)/C(C#N)=C(\N)C(CC)CC (stereo not drawn) [Example 4.2]				effect on the harmful plant Digitaria sanguinalis (Digitaria sanguinalis; 0.5 kg/ha): very good; effect on the harmful plant Setaria faberii (Setaria faberii [1]; 0.5 kg/ha): very good; post-emergence activity against Pharbitis purpurea (Pharbitis purpurea; 0.5 kg/ha): very good
CCC(CC)/C(N)=C(\C#N)C(=O)OC(C)(C)C [Example 4.4]	very good	very good	150 °C	
CCC(CC)/C(N)=C(\C#N)C(=O)OCC(C)C [Example 4.5]	very good	very good		effect on the harmful plant Digitaria sanguinalis (Digitaria sanguinalis; 1.0 kg/ha): very good
CCC(CC)/C(N)=C(\C#N)C(=O)OCC(C)(C)C [Example 4.6]	very good	very good		
CCC(CC)/C(N)=C(\C#N)C(=O)OC(C)C(C)C (stereo not drawn) [Example 4.7]	good	good		
CCC(CC)/C(N)=C(\C#N)C(=O)OC1CCCC1 [Example 4.11]	very good	very good	140 °C	
CCC(CC)/C(N)=C(\C#N)C(=O)OC1CCCCC1 [Example 4.12]			154 °C	
CCC(CC)/C(N)=C(\C#N)C(=O)OCC1CC1 [Example 4.13]	very good		125 °C	effect on the harmful plant Digitaria sanguinalis (Digitaria sanguinalis; 1.0 kg/ha): very good
CCC(CC)/C(N)=C(\C#N)C(=O)OC1COC1 [Example 4.14, 3-Oxetanyl (2Z)-3-amino-2-cyano-4-ethyl-2-hexenoat]	very good			
C=CC(C)OC(=O)/C(C#N)=C(\N)C(CC)CC (stereo not drawn) [Example 4.16]	very good			effect on the harmful plant Digitaria sanguinalis (Digitaria sanguinalis; 1.0 kg/ha): very good
C#CCOC(=O)/C(C#N)=C(\N)C(CC)CC [Example 4.19]				effect on the harmful plant Digitaria sanguinalis (Digitaria sanguinalis; 0.5 kg/ha): very good; effect on the harmful plant Setaria faberii (Setaria faberii [1]; 0.5 kg/ha): very good
C#CC(C)OC(=O)/C(C#N)=C(\N)C(CC)CC (stereo not drawn) [Example 4.20]	very good	very good		effect on the harmful plant Digitaria sanguinalis (Digitaria sanguinalis; 1.0 kg/ha): very good
CCC(CC)/C(N)=C(\C#N)C(=O)OCCC(F)(F)F [Example 4.22]				effect on the harmful plant Digitaria sanguinalis (Digitaria sanguinalis; 0.5 kg/ha): very good; effect on the harmful plant Setaria faberii (Setaria faberii [1]; 0.5 kg/ha): very good
CCC(CC)/C(N)=C(\C#N)C(=O)OCCCl [Example 4.23]	very good	very good		
CCC(CC)/C(N)=C(\C#N)C(=O)OCC(F)(F)F [Example 4.25]	very good		115 °C	
CCC(CC)/C(N)=C(\C#N)C(=O)OCCCCl [Example 4.29]	good	very good		
CCC(CC)/C(N)=C(\C#N)C(=O)OC(C)CCl (stereo not drawn) [Example 4.30]	very good			effect on the harmful plant Digitaria sanguinalis (Digitaria sanguinalis; 1.0 kg/ha): very good

Structure (SMILES)	effect on the harmful plant Setaria faberii (Setaria faberii [1]; 1.0 kg/ha)	post-emergence activity against Pharbitis purpurea (Pharbitis purpurea; 1.0 kg/ha)	melting point	further results
CCC(CC)/C(N)=C(\C#N)C(=O)OC(C)C#N (stereo not drawn) [Example 4.35]	good			
CCC(CC)/C(N)=C(\C#N)C(=O)OC1CCOC1 (stereo not drawn) [Example 4.38]			105 to 110 °C	
CCC(CC)/C(N)=C(\C#N)C(=O)O [Example 4.42, (2Z)-3-Amino-2-cyano-4-ethyl-2-hexene acid]			165 °C	
CCC(CC)/C(N)=C(\C#N)C(=O)OC1CCCO1 (stereo not drawn) [Example 4.43]			180 °C	
CCC(COC)/C(N)=C(\C#N)C(=O)OC(C)C (stereo not drawn) [Example 5.2]	very good	very good		
CCCC(CC)/C(N)=C(\C#N)C(=O)OC(C)C (stereo not drawn) [Example 5.3]	very good			
CCCC(CCC)/C(N)=C(\C#N)C(=O)OC(C)C [Example 5.6]		very good		
C=CCC(CC)/C(N)=C(\C#N)C(=O)OC(C)C (stereo not drawn) [Example 5.7]	very good	very good		effect on the harmful plant Digitaria sanguinalis (Digitaria sanguinalis; 1.0 kg/ha): very good
C=CCC(CC=C)/C(N)=C(\C#N)C(=O)OC(C)C [Example 5.9]		very good		
C#CCC(CC)/C(N)=C(\C#N)C(=O)OC(C)C (stereo not drawn) [Example 5.10]	very good			
C#CCC(CC=C)/C(N)=C(\C#N)C(=O)OC(C)C (stereo not drawn) [Example 5.11]		very good		
CCC(CC)/C(N)=C(\C#N)C(N)=O [Example 6.1]			125 °C	
CCC(CC)/C(N)=C(\C#N)C(=O)NC [Example 6.2]			146 °C	
CCNC(=O)/C(C#N)=C(\N)C(CC)CC [Example 6.3]	very good	very good	104 to 106 °C	
CCC(CC)/C(N)=C(\C#N)C(=O)NC(C)C [Example 6.5]			164 °C	
CCC(CC)/C(N)=C(\C#N)C(=O)N(C)C [Example 6.21]			132 °C	
CCNC(=O)/C(C#N)=C(\N)C(CC)CC [Example 6.29]			124 °C	
CCC(CC)/C(N)=C(\C#N)C(=O)SC(C)C [Example 7.3]		very good	115 °C	
